The experiment deals with long-standing (25 days) spinal cord injury of minor intensity. In words: Chronic crush experiment, 25-day old mild compression injury (1.6 mm), OFT score. In kind it is in vivo, rat. The note with it: for OFT score 3 hours after last dose (Day 28, mild) / OFT score 3 hours after last dose: three consecutive daily doses; for OFT score prior to dose (Day 25, mild): group 3 mg/kg po; for OFT score prior to dose (Day 25, mild) / OFT score prior to dose: baseline before dosing. An excerpt: Normal spinal cord diameter is approximately 2.5 mm. This compression represents a moderate injury characterized by initial open field walking scores of 1.5–2.5 in the Open Field Walking Scale. […] The spinal cords of female rats were exposed to laminectomy or crush to a diameter of 1.6 mm. This represented a minor injury, and was designed to result in OFT scores of 4.0 after 25 days of no treatment. […] In this experiment, OFT scores were slightly higher (4.3–4.5), leaving only a small window for improvement. […] Consistent improvement was also observed after once a day ip 0.6 mg/kg 4-AP as well. The statistical differences were based upon the changes for each individual rat (each rat was its own control) using Mann-Whitney U-test. All the behavioral tests on day1, day2 and day3 were performed at 3 hours after gavage. There was no drug given on day3 (first day started to give drug was day 0).

The structures appear in SMILES notation. Marks after values point to notes of the source that are not given here.

As to `CCCN(c1ccncc1F)n1cc(C)c2ccccc21` [HP184, N-(3-fluoro-4-pyridinyl)-N-propyl-3-methyl-1H-indole-1-amine], the “OFT score prior to dose (Day 25, mild)” value is recorded as 4.32 ± .016. Besides, under “3 mg/kg po once a day, p=0.0027”, the “OFT improvement compared to vehicle control (Mann-Whitney U-test)” value is “significant improvement at 30 min to 6 h to day 1”. Also, the “OFT score 3 hours after last dose (Day 28, mild)” value (3 mg/kg po once a day) was 4.47 ± .035. The “OFT score 3 hours after last dose (Day 28, mild)” value (3 mg/kg po once a day, listed as HP) came out at 4.47 ± 0.04. In addition, the “OFT improvement compared to vehicle control (Mann-Whitney U-test)” value (10 mg/kg po once a day, p=0.014) was “significant improvement at 30 min and 3 h to 12 h”. Moreover, the “OFT score 3 hours after last dose” value (10 mg/kg po once a day) was 4.44 ± 0.03. Under “20 mg/kg po once a day, p=0.002”, the “OFT improvement compared to vehicle control (Mann-Whitney U-test)” value was “significant improvement at 3 h to day 3”. Further, the “OFT score 3 hours after last dose” value (20 mg/kg po once a day) was determined as 4.60 ± 0.02. Under “3 mpk po”, the “% possible improvement (highest score = 5), mild” value is on record as 22.0%* and the “Delta of OFT score, Day 25 to Day 28 (mild)” value is “.15”. Moreover, the “OFT score prior to dose (Day 25, mild)” value (listed as HP) worked out at 4.32 ± 0.05. In addition, the “OFT score prior to dose” value (group 10 mg/kg po) amounted to 4.36 ± 0.01. In addition, for the setting “group 20 mg/kg po”, the “OFT score prior to dose” value is 4.54 ± 0.02.

(Values after patent US7179821B2, “Method of treating of demyelinating diseases or conditions” (Aventis Pharmaceuticals Inc., priority 2001, dated 2007).)
